Assay results from patent publication US12624023B2, “Sulfonylurea derivatives and uses thereof” (NodThera Limited, priority 2019, dated 2026).

How the values were obtained:
[1] = test system: IL-1β release upon NLRP3 activation in human whole blood; test: Whole blood (WB) assay (IL-1β release, LPS priming + ATP stimulation, HTRF); format: cell-based; settings: heparin, diluted 9:5 with media, LPS 1 μg/ml 3 h, compound 30 min, ATP 5 mM 1 h, IL-1β by HTRF
Protocol: The compounds of the present disclosure were tested for their inhibitory activity against IL-1β release upon NLRP3 activation in human whole blood.
Whole blood was drawn from single healthy donors and treated with sodium heparin anticoagulant. Blood was diluted with cell culture media at a 9:5 ratio, seeded in a 96-well plate and incubated for 3 h with lipopolysaccharide (LPS, 1 μg/ml final concentration diluted 1000× from a 1 mg/ml stock solution). The compounds of the present disclosure were added (a single compound concentration per well) and the blood was incubated for 30 min. Next, the blood was stimulated with ATP (5 mM final concentration diluted 20× from a 100 mM stock solution) for 1 h and the cell culture media from the wells were collected for further analysis.
The release of IL-1β into the media was determined by quantitative detection of IL-1β in the media using HTRF®, CisBio cat. No. 62HIL1BPEH. Briefly, cell culture supernatant were diluted as appropriate to bring IL-1β levels within the HTRF® detection range ([…]) and subsequently dispensed into the assay plate containing antibodies labelled with the HTRF® donor and acceptor. A microplate spectrophotometer (BMG) was used to detect signals at 655 nm and 620 nm.

[2] = test system: IL-1β release upon NLRP3 activation in peripheral blood mononuclear cells (PBMC); test: PBMC IC50 determination assay (IL-1β release, LPS priming + ATP stimulation, HTRF); format: cell-based; settings: PBMC from buffy coats; LPS 1 μg/ml 3 h, compound 30 min, ATP 5 mM 1 h; IL-1β by HTRF
Protocol: The compounds of the present disclosure were tested for their inhibitory activity against IL-1β release upon NLRP3 activation in peripheral blood mononuclear cells (PBMC).
PBMC were isolated from buffy coats by density gradient centrifugation on Histopaque-1077 (Sigma, cat no. 10771). Isolated cells were seeded into the wells (280,000 cells/well) of a 96-well plate and incubated for 3 h with lipopolysaccharide (LPS, 1 μg/ml diluted 1000× from a 1 mg/ml stock solution). The compounds of the present disclosure were added (a single compound per well) and the cells were incubated for 30 min. Next, the cells were stimulated with ATP (5 mM final concentration diluted 20× from a 100 mM stock solution) for 1 h and the cell culture media from the wells were collected for further analysis.
The release of IL-1β into the media was determined by quantitative detection of IL-1β in the media using HTRF®, CisBio cat. No. 62HIL1BPEH. Briefly, cell culture supernatant were dispensed directly into the assay plate containing antibodies labelled with the HTRF® donor and acceptor. A microplate spectrophotometer (BMG) was used to detect signals at 655 nm and 620 nm. The detection range of IL-1β HTRF® was […].

SMILES	IC50 [1]	IC50 [2]
Cc1csc(C)c1NC(=O)NS(=O)(=O)N(c1cnn(C)c1)C1CCOCC1 [Compound 1, 3-(2,4-Dimethylthiophen-3-yl)-1-[(1-methyl-1H-pyrazol-4-yl)(oxan-4-yl)-sulfamoyl]urea]	3000 to 10000 nM	1000 to 5000 nM
Cc1cc(NC(=O)NS(=O)(=O)N(c2cnn(C)c2)C2CCOCC2)c(C)s1 [Compound 2, 3-(2,5-Dimethylthiophen-3-yl)-1-[(1-methyl-1H-pyrazol-4-yl)(oxan-4-yl)sulfamoyl]urea]	3000 to 10000 nM	500 to 1000 nM
Cc1sc2ccccc2c1NC(=O)NS(=O)(=O)N(c1cnn(C)c1)C1CCOCC1 [Compound 3, 3-(2-Methyl-1-benzothiophen-3-yl)-1-[(1-methyl-1H-pyrazol-4-yl)(oxan-4-yl)sulfamoyl]urea]	> 20000 nM	1000 to 5000 nM
CCc1cc(NC(=O)NS(=O)(=O)N(c2cnn(C)c2)C2CCOCC2)c(CC)s1 [Compound 4, 3-(2,5-Diethylthiophen-3-yl)-1-[(1-methyl-1H-pyrazol-4-yl)(oxan-4-yl)sulfamoyl]urea]	10000 to 20000 nM	1000 to 5000 nM
Cn1cc(N(C2CCOCC2)S(=O)(=O)NC(=O)Nc2cc(Cl)sc2Cl)cn1 [Compound 5, 3-(2,5-Dichlorothiophen-3-yl)-1-[(1-methyl-1H-pyrazol-4-yl)(oxan-4-yl)sulfamoyl]urea]	> 20000 nM	5000 to 10000 nM
CC(C)c1cc(NC(=O)NS(=O)(=O)N(c2cnn(C)c2)C2CCOCC2)c(C(C)C)s1 [Compound 6, 3-[2,5-Bis(propan-2-yl)thiophen-3-yl]-1-[(1-methyl-1H-pyrazol-4-yl)(oxan-4-yl)sulfamoyl]urea]	> 20000 nM	500 to 1000 nM
CCc1csc(CC)c1NC(=O)NS(=O)(=O)N(c1cnn(C)c1)C1CCOCC1 [Compound 7, 3-(2,4-Diethylthiophen-3-yl)-1-[(1-methyl-1H-pyrazol-4-yl)(oxan-4-yl)sulfamoyl]urea]	10000 to 20000 nM	1000 to 5000 nM
Cc1cc(NC(=O)NS(=O)(=O)N(c2cnn(C)c2)C2CCCN(C)C2)c(C)s1 (stereo not shown) [Compound 8, 3-(2,5-Dimethylthiophen-3-yl)-1-[(1-methyl-1H-pyrazol-4-yl)(1-methyl-piperidin-3-yl)sulfamoyl]urea]	1000 to 3000 nM	1000 to 5000 nM
Cc1csc(C)c1NC(=O)NS(=O)(=O)N(c1cnn(C)c1)C1CCCN(C)C1 (stereo not shown) [Compound 9, 3-(2,4-Dimethylthiophen-3-yl)-1-[(1-methyl-1H-pyrazol-4-yl)(1-methyl-piperidin-3-yl)sulfamoyl]urea]	3000 to 10000 nM	1000 to 5000 nM
Cc1cc(C)c(NC(=O)NS(=O)(=O)N(c2cnn(C)c2)C2CCCN(C)C2)s1 (stereo not shown) [Compound 10, 3-(3,5-Dimethylthiophen-2-yl)-1-[(1-methyl-1H-pyrazol-4-yl)(1-methyl-piperidin-3-yl)sulfamoyl]urea]	10000 to 20000 nM	1000 to 5000 nM
CC(C)c1cc(NC(=O)NS(=O)(=O)N(c2cnn(C)c2)C2CCCN(C)C2)c(C(C)C)s1 (stereo not shown) [Compound 11, 3-[2,5-Bis(propan-2-yl)thiophen-3-yl]-1-[(1-methyl-1H-pyrazol-4-yl)(1-methyl-piperidin-3-yl)sulfamoyl]urea]	< 1000 nM	< 100 nM
Cc1sc2ccccc2c1NC(=O)NS(=O)(=O)N(c1cnn(C)c1)C1CCCN(C)C1 (stereo not shown) [Compound 12, 3-(2-Methyl-1-benzothiophen-3-yl)-1-[(1-methyl-1H-pyrazol-4-yl)(1-methyl-piperidin-3-yl)sulfamoyl]urea]	1000 to 3000 nM	500 to 1000 nM
CCc1cc(NC(=O)NS(=O)(=O)N(c2cnn(C)c2)C2CCCN(C)C2)c(CC)s1 (stereo not shown) [Compound 13, 3-(2,5-Diethylthiophen-3-yl)-1-[(1-methyl-1H-pyrazol-4-yl)(1-methylpiperidin-3-yl)sulfamoyl]urea]	< 1000 nM	< 100 nM
CCc1csc(CC)c1NC(=O)NS(=O)(=O)N(c1cnn(C)c1)C1CCCN(C)C1 (stereo not shown) [Compound 14, 3-(2,4-Diethylthiophen-3-yl)-1-[(1-methyl-1H-pyrazol-4-yl)(1-methylpiperidin-3-yl)sulfamoyl]urea]	1000 to 3000 nM	< 100 nM
Cc1sc(C)c(NC(=O)NS(=O)(=O)N(c2cnn(C)c2)C2CCCN(C)C2)c1C (stereo not shown) [Compound 15, 1-[(1-Methyl-1H-pyrazol-4-yl)(1-methylpiperidin-3-yl)sulfamoyl]-3-(2,4,5-trimethylthiophen-3-yl)urea]	> 20000 nM	500 to 1000 nM
CC(C)c1csc(C(C)C)c1NC(=O)NS(=O)(=O)N(c1cnn(C)c1)C1CCCN(C)C1 (stereo not shown) [Compound 16, 3-[2,4-Bis(propan-2-yl)thiophen-3-yl]-1-[(1-methyl-1H-pyrazol-4-yl)(1-methyl-piperidin-3-yl)sulfamoyl]urea]	1000 to 3000 nM	100 to 500 nM
Cc1csc(NC(=O)NS(=O)(=O)N(c2cnn(C)c2)C2CCCN(C)C2)c1C (stereo not shown) [Compound 17, 3-(3,4-Dimethylthiophen-2-yl)-1-[(1-methyl-1H-pyrazol-4-yl)(1-methyl-piperidin-3-yl)sulfamoyl]urea]		5000 to 10000 nM
CC(C)c1cc(NC(=O)NS(=O)(=O)N(CCN(C)C)c2cnn(C)c2)c(C(C)C)s1 [Compound 18, 3-[2,5-Bis(propan-2-yl)thiophen-3-yl]-1-{[2-(dimethylamino)ethyl](1-methyl-1H-pyrazol-4-yl)sulfamoyl}urea]	1000 to 3000 nM	100 to 500 nM
CCc1cc(NC(=O)NS(=O)(=O)N(CCN(C)C)c2cnn(C)c2)c(CC)s1 [Compound 19, 3-(2,5-Diethylthiophen-3-yl)-1-{[2-(dimethylamino)ethyl](1-methyl-1H-pyrazol-4-yl)sulfamoyl}urea]	1000 to 3000 nM	100 to 500 nM
CCc1cc(NC(=O)NS(=O)(=O)N(c2cnn(C)c2)C2CCCN(C)C2)c(CC)o1 (stereo not shown) [Compound 28, 3-(2,5-Diethylfuran-3-yl)-1-[(1-methyl-1H-pyrazol-4-yl)(1-methylpiperidin-3-yl)sulfamoyl]urea]	1000 to 3000 nM	100 to 500 nM
CCc1cc(CC)c(NC(=O)NS(=O)(=O)N(c2cnn(C)c2)C2CCCN(C)C2)s1 (stereo not shown) [Compound 29, 3-(3,5-Diethylthiophen-2-yl)-1-[(1-methyl-1H-pyrazol-4-yl)(1-methylpiperidin-3-yl)sulfamoyl]urea]	1000 to 3000 nM	100 to 500 nM
CCc1nc(NC(=O)NS(=O)(=O)N(c2cnn(C)c2)C2CCCN(C)C2)c(CC)s1 (stereo not shown) [Compound 31, 3-(2,5-Diethyl-1,3-thiazol-4-yl)-1-[(1-methyl-1H-pyrazol-4-yl)(1-methyl-piperidin-3-yl)sulfamoyl]urea]		5000 to 10000 nM
Cc1sc2c(c1NC(=O)NS(=O)(=O)N(c1cnn(C)c1)C1CCCN(C)C1)CCC2 (stereo not shown) [Compound 32, 1-[(1-Methyl-1H-pyrazol-4-yl)(1-methylpiperidin-3-yl)sulfamoyl]-3-{2-methyl-4H,5H,6H-cyclopenta[b]thiophen-3-yl}urea]	< 1000 nM	100 to 500 nM
CCc1cc(NC(=O)NS(=O)(=O)N(C[C@@H]2C[C@@H](F)CN2C)c2cnn(C(C)C)c2)c(CC)o1 [Compound 63, 3-(2,5-Diethylfuran-3-yl)-1-({[(2S,4R)-4-fluoro-1-methylpyrrolidin-2-yl]methyl}[1-(propan-2-yl)-1H-pyrazol-4-yl]sulfamoyl)urea]		1000 to 5000 nM
CCc1cc(NC(=O)NS(=O)(=O)N(C2CCOCC2)C2CCCN(C)C2)c(CC)s1 (stereo not shown) [Compound 68, 3-(2,5-Diethylthiophen-3-yl)-1-[(1-methylpiperidin-3-yl)(oxan-4-yl)sulfamoyl]-urea]		5000 to 10000 nM
CCc1cc(NC(=O)NS(=O)(=O)N(CCN(C)C)c2cnn(C)c2)c(CC)o1 [Compound 72, 3-(2,5-Diethylfuran-3-yl)-1-{[2-(dimethylamino)ethyl](1-methyl-1H-pyrazol-4-yl)sulfamoyl}urea]		1000 to 5000 nM
CCc1cc(NC(=O)NS(=O)(=O)N(CC2CCCO2)c2cnn(C)c2)c(CC)o1 (stereo not shown) [Compound 74, 1-(2,5-Diethylfuran-3-yl)-3-[(1-methyl-1H-pyrazol-4-yl)[(oxolan-2-yl)methyl]-sulfamoyl]urea]		1000 to 5000 nM
Cc1cc(NC(=O)NS(=O)(=O)N(c2cnn(C3CC3)c2)[C@H]2CCCN(C)C2)c(C2CC2)s1 [Compound 105, 1-[(1-Cyclopropyl-1H-pyrazol-4-yl)[(3S)-1-methylpiperidin-3-yl]sulfamoyl]-3-(2-cyclopropyl-5-methylthiophen-3-yl)urea]		100 to 500 nM
